Patent US4612371A, “Anthracycline antibiotics” (Sanraku Incorporated, priority 1984, dated 1986)
In brackets after ≈: the same amount, converted by molar mass.

Legend:
[1] = tested on: mouse leukemia L1210 cells; test: Inhibition of DNA synthesis in L1210 culture cells (14C-thymidine intake); format: cell-based; conditions: read-out: 50% Inhibitory Concentration (IC50), Inhibition of DNA Synthesis
Method: (§1) L 1210 cells of 5×10^4 /ml were inoculated on, e.g., RPM 11640 medium (Rosewellberg Research Laboratories) containing 20% bovine serum and, the substances of the present invention were added thereto, respectively, in a concentration of 0.02 to 0.25 μg/ml in a similar fashion. Cultivation was performed at 37° C. in a carbon dioxide culture bottle. Then, a 50% inhibitory action against proliferation was determined based on control fraction. Further, the aforesaid L 1210 culture cell was suspended in 10% bovine serum-containing RPM 11640 medium in a concentration of 5×10^5 /ml. After cultivating at 37° C. for 1 to 2 hours in a carbon dioxide culture bottle, the substance was added in various concentrations and, ^14 C-uridine (0.05 μCi/ml) or ^14 C-thymidine (0.05 μCi/ml) was further added thereto 15 minutes after followed by culturing at 37° C. for 60 minutes. A cold 10% trichloro-acetic acid was added to the reaction solution to discontinue the reaction and at the same time, matters insoluble in the acid were precipitated. After washing further twice with cold 5% trichloroacetic acid, the insoluble matters were dissolved in formic acid and, radioactivity was measured. A 50% intake inhibitory concentration was determined from an intake rate of radioactivity, based on the control fraction to which no substance was added.

[2] = tested on: mouse leukemia L1210 cells; test: Inhibition of proliferation of cultured mouse leukemia L1210 cells; format: cell-based
Method: as §1

[3] = tested on: mouse leukemia L1210 cells; test: Inhibition of RNA synthesis in L1210 culture cells (14C-uridine intake); format: cell-based; conditions: read-out: 50% Inhibitory Concentration (IC50), Inhibition of RNA Synthesis
Method: as §1

mouse L1210 leukemia = test: In vivo anti-tumor activity against mouse L1210 leukemia; conditions: day 1 to day 10, CDF1 mice, n = 6
From the text: Inoculation: 1 × 10^5 cell/mouse (i.p.)
Treatment: day 1 to day 10 (i.p.)

[4] = 1 h, L1210 cells 5×10^5/ml, 10% bovine serum, 14C-thymidine, 60 minutes, 37° C.
[5] = L1210 cells 5×10^4/ml, 20% bovine serum, 37° C., read-out: 50% Inhibitory Concentration (IC50), Inhibition of Cell Proliferation
[6] = 1 h, L1210 cells 5×10^5/ml, 10% bovine serum, 14C-uridine, 60 minutes, 37° C.

| IC50 [1, 4] [µg/mL] | IC50 [2, 5] [µg/mL] | IC50 [3, 6] [µg/mL] | SMILES | also measured |
| --- | --- | --- | --- | --- |
|  |  |  | CCC1(O)CC(OC2CC(N)C(O)C(C)O2)c2c(O)c3c(c(O)c2C1C(=O)OC)C(=O)c1cccc(O)c1C3=O (stereo not shown) [D788-6] | IC50 ([1]; L1210, 1 h): 2.6 µg/mL (≈ 4.66 µM); IC50 ([2]; L1210, read-out: 50% Inhibitory Concentration (IC50), Inhibition of Cell Proliferation): 0.25 µg/mL (≈ 0.448 µM); IC50 ([3]; L1210, 1 h): 1.3 µg/mL (≈ 2.33 µM) |
| 0.29 (≈ 0.563 µM) | 0.0003 (≈ 0.000582 µM) | 0.68 (≈ 1.32 µM) | CCC1(O)CC(OC2CC(N)C(O)C(C)O2)c2c(O)c3c(c(O)c2C1O)C(=O)c1cccc(O)c1C3=O (stereo not shown) [D788-7] | Anti-tumor Effect T/C(%) (mouse L1210 leukemia; 4 μg/kg/day i.p.): 102%; Anti-tumor Effect T/C(%) (mouse L1210 leukemia; 8 μg/kg/day i.p.): 104%; Anti-tumor Effect T/C(%) (mouse L1210 leukemia; 16 μg/kg/day i.p.): 133%; Anti-tumor Effect T/C(%) (mouse L1210 leukemia; 32 μg/kg/day i.p.): 187%; Anti-tumor Effect T/C(%) (mouse L1210 leukemia; 62.5 μg/kg/day i.p.): 204%; Anti-tumor Effect T/C(%) (mouse L1210 leukemia; 125 μg/kg/day i.p.): 172%; Anti-tumor Effect T/C(%) (mouse L1210 leukemia; 250 μg/kg/day i.p.): 100% |
| 3.4 (≈ 6.83 µM) | 0.22 (≈ 0.442 µM) | 1.58 (≈ 3.18 µM) | CC(O)C1=Cc2c(O)c3c(c(O)c2[C@@H](O[C@H]2C[C@H](N)[C@H](O)[C@H](C)O2)C1)C(=O)c1c(O)cccc1C3=O (stereo partly shown) [D788-8] |  |
| 4.2 (≈ 7.35 µM) | 0.22 (≈ 0.385 µM) | 2.59 (≈ 4.53 µM) | COC(=O)C1c2c(O)c3c(c(O)c2C(OC2CC(N)C(O)C(C)O2)CC1(O)C(C)=O)C(=O)c1c(O)cccc1C3=O (stereo not shown) [D788-9] |  |
| 10 (≈ 17.9 µM) | 0.083 (≈ 0.148 µM) | 10 (≈ 17.9 µM) | CC1OC(OC2CC(O)(C(C)O)C(C(=O)O)c3c(O)c4c(c(O)c32)C(=O)c2c(O)cccc2C4=O)CC(N)C1O (stereo not shown) [D788-10] |  |
